Test results as given in US8709385B2, “Poloxamer foamable pharmaceutical compositions with active agents and/or therapeutic cells and uses” (Foamix Ltd., priority 2008, dated 2014).
Like-named read-outs stand apart in the source and are kept apart here.

What was measured:
[1] = Solubility and gelling of salicylic acid in Poloxamer 188 solution; format: physicochemical; settings: 0.50 gr. in 12.5 gr. of 20% Poloxamer 188
Text: In both vials, 1 & 2, there are 12.5 gr. of 20% Poloxamer 188/purified water stock solution (2.5 gr. Poloxamer 188+10 gr. purified water).

[2] = USP 29, cited from earlier work
[3] = Solubility of 3% sodium diclofenac in Poloxamer 407 in water; format: physicochemical; settings: 3% in 5, 7 and 10 percent of Poloxamer in water, heated to 75° C. and cooled
Description: All 3 concentrations were heated to 75° C. to dissolution and cooled.

[4] = Microscope observation for crystals of active agent; format: physicochemical; settings: Poloxamer 407 at 15% concentration in the formulation
Text: Poloxamer 407 functions as co-solubilizer ingredient of sodium diclofenac.

state of Poloxamer 188 solution with doubled salicylic acid concentration [1]	crystals after 24 h [3]	crystals under the microscope [4]	SMILES	solubility in water ([2]; 20° C.) [%]	solubility in water [2] [gr. in 460 gr.]
viscous gel with no fluidity			O=C(O)c1ccccc1O [Salicylic acid]	~0.2	1
	crystals were visually observed	crystals were not observed	O=C(O)Cc1ccccc1Nc1c(Cl)cccc1Cl [sodium diclofenac]		
